Measured values reported in patent publication US11246309B2, “Preserving agent for organs or tissue and preservation method for organs or tissue” (ISHIHARA SANGYO KAISHA, LTD., priority 2015, dated 2022).

What was measured:
liver [1] = experiment: Organ preservation test: hepatic histopathological change after preservation at 4° C.; set-up: species or system SD rats; conditions: additives in UW solution, score 0 to 3.0 per sample
Method: The formulations of preserving solutions containing UW solution, and a combination of quercetin and sugar were evaluated using a hepatic histopathological change as an index.
Williams solution only, Williams solution containing only quercetin (10 μg/mL), Williams solution containing only fructose (0.2M), Williams solution containing only sucrose (0.1M), Williams solution containing quercetin (10 μg/mL) and fructose (0.2M), or Williams solution containing quercetin (10 μg/mL) and sucrose (0.1M) was used as an organ perfusion solution. Subsequently, as an organ preserving solution, UW solution only, UW solution containing only quercetin (10 μg/mL), UW solution containing only fructose (0.2M), UW solution containing only sucrose (0.1M), UW solution containing quercetin (10 μg/mL) and fructose (0.2M) or UW solution containing quercetin (10 μg/mL) and sucrose (0.1M) was used.
SD rats (male, body weight=264.1 g to 317.2 g) were injected with heparin from the portal vein under anesthesia. Thereafter, they were perfused with a physiological saline solution (8 cmH2O, about 100 mL) at room temperature, and then perfused with each organ perfusion solution (8 cmH2O, about 100 mL) at room temperature. Thereafter, the liver was excised, immersed in 20 mL of each organ preserving solution, and preserved at 4° C. 1 day after and 2 days after the preservation was started, all liver samples were immobilized using a 10% phosphate buffer formalin aqueous solution, and embedded in paraffin according to the standard method. Each sample was sliced into about 6 μm and a hematoxylin-eosin staining sample was prepared, followed by microscopic examination. The degrees of the observed histopathological change were converted to scores as shown below, and summed as cumulative values.
Score 0: no change was observed, Score 0.5: slight change was observed, Score 1.0: small change was observed, Score 2.0: intermediate change was observed, Score 3.0: great change was observed.

liver [2] = experiment: Organ preservation test: rat liver preserved at 4° C., ALT in organ immersion solution; set-up: species or system SD rats; conditions: additives in UW solution, liver at 4° C., mean of n=3 ± SD
Method: The protective action of a preserving solution for organs or tissue used in organ transplantation or tissue transplantation was assumed, and formulations of preservative solutions containing UW solution, and a combination of quercetin and sugar were evaluated using liver damage degree as an index. Williams solution (GIBCO, No. 12551-032) only, Williams solution containing quercetin (Sigma-Aldrich, 337951-25G) (10 μg/mL), Williams solution containing quercetin (10 μg/mL) and fructose (0.05M to 0.4M) (Kanto Chemical Co., Inc., Code No. 16065-00) (0.05M to 0.4M), or Williams solution containing quercetin (10 μg/mL) and sucrose (0.025M to 0.2M) (Nacalai Tesque, Inc., Code No. 30404-45) (0.025M to 0.2M) was used as an organ perfusion solution. Subsequently, UW solution (VSP1000, […] (cold storage solution) 1000 mL: Astellas Pharma Inc.) only, UW solution containing quercetin (10 μg/mL), UW solution containing quercetin (10 μg/mL) and fructose (0.05M to 0.4M), or UW solution containing quercetin (10 μg/mL) and sucrose (0.025M to 0.2M) was used as an organ preserving solution. SD rats (male, body weight=255.4 g to 339.0 g) were injected with heparin from the portal vein under anesthesia. Thereafter, they were perfused with a physiological saline solution (8 cmH2O, about 100 mL) at room temperature, and then perfused with each organ perfusion solution (8 cmH2O, about 100 mL) at room temperature. Thereafter, the liver was excised, immersed in 20 mL of each organ preserving solution, and preserved at 4° C. A part of each organ preserving solution was collected at 1 day after, 3 days after, 5 days after, and 7 days after the preservation was started, and ALT (alanine aminotransferase) (IU/L) was measured as an index of the degree of liver damage due to low-temperature preservation. The measured ALT are shown in Tables 1 and 2 (average value of n=3±standard deviation).

[3] = 1 day after preservation at 4° C. was started
[4] = 2 days after preservation at 4° C. was started

Row | SMILES | Histopathological Change: Diffuse Vacuolar Degeneration (Cumulative Score of n = 3) (liver [1]; [3]) | Histopathological Change: Sporadic Single Cell Cloudy Swelling (Cumulative Score of n = 3) (liver [1]; [3]) | Histopathological Change: Sporadic Single Cell Necrosis (Cumulative Score of n = 3) (liver [1]; [3]) | Histopathological Change: Diffuse Vacuolar Degeneration (Cumulative Score of n = 3) (liver [1]; [4]) | Histopathological Change: Sporadic Single Cell Cloudy Swelling (Cumulative Score of n = 3) (liver [1]; [4]) | Histopathological Change: Sporadic Single Cell Necrosis (Cumulative Score of n = 3) (liver [1]; [4]) | ALT Value in Organ Immersion Solution (liver [2]; Table 1, 1 day after) [IU/L] | ALT Value in Organ Immersion Solution (liver [2]; Table 1, 3 days after) [IU/L] | ALT Value in Organ Immersion Solution (liver [2]; Table 1, 5 days after) [IU/L] | ALT Value in Organ Immersion Solution (liver [2]; Table 1, 7 days after) [IU/L] | ALT Value in Organ Immersion Solution (liver [2]; Table 2, 1 day after) [IU/L] | ALT Value in Organ Immersion Solution (liver [2]; Table 2, 3 days after) [IU/L] | ALT Value in Organ Immersion Solution (liver [2]; Table 2, 5 days after) [IU/L] | ALT Value in Organ Immersion Solution (liver [2]; Table 2, 7 days after) [IU/L]
1 | O=C(CO)[C@@H](O)[C@H](O)[C@H](O)CO [0.2M Fructose, fructose] | 2.0 | 2.5 | 1.0 | 1.5 | 1.0 | 0.5 | – | – | – | – | – | – | – | –
2 | OC[C@H]1O[C@@](CO)(O[C@H]2O[C@H](CO)[C@@H](O)[C@H](O)[C@H]2O)[C@@H](O)[C@@H]1O [0.1M Sucrose, sucrose] | 3.0 | 2.0 | 0.5 | 3.0 | 2.5 | 1.0 | – | – | – | – | – | – | – | –
3 | O=c1c(O)c(-c2ccc(O)c(O)c2)oc2cc(O)cc(O)c12 [Quercetin 10 μg/mL, quercetin] | 3.0 | 1.5 | 0.0 | 3.0 | 2.0 | 0.5 | 65 ± 71 | 90 ± 82 | 98 ± 77 | 117 ± 71 | 62 ± 68 | 108 ± 121 | 126 ± 135 | 148 ± 144
